In PubChem BioAssay (NCI):
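Briefly, cells in 96-well plates were exposed to five compound concentrations for 48 h, and endpoints were estimated by linear interpolation. GI50 = concentration required for 50% inhibition of growth. TGI denotes the concentration required for complete inhibition of growth.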

How the values were obtained:
Test in all cases: NCI tumour cell line growth inhibition, 48 h
COLO 205 colon = tested on: COLO 205 colon
CAKI-1 renal = tested on: CAKI-1 renal
M14 melanoma = tested on: M14 melanoma
T-47D breast = tested on: T-47D breast
HCC-2998 colon = tested on: HCC-2998 colon
A498 renal = tested on: A498 renal
U251 CNS = tested on: U251 CNS
PC-3 prostate = tested on: PC-3 prostate
UACC-257 melanoma = tested on: UACC-257 melanoma
MOLT-4 leukemia = tested on: MOLT-4 leukemia
TK-10 renal = tested on: TK-10 renal
SK-MEL-28 melanoma = tested on: SK-MEL-28 melanoma
ACHN renal = tested on: ACHN renal
LOX IMVI melanoma = tested on: LOX IMVI melanoma
A549 NSCLC = tested on: A549 NSCLC
SF-295 CNS = tested on: SF-295 CNS
KM12 colon = tested on: KM12 colon
NCI-H226 lung = tested on: NCI-H226 lung
MDA-MB-468 breast = tested on: MDA-MB-468 breast
NCI-H23 lung = tested on: NCI-H23 lung
OVCAR-4 ovarian = tested on: OVCAR-4 ovarian
HT29 colon = tested on: HT29 colon
BT-549 breast = tested on: BT-549 breast
UO-31 renal = tested on: UO-31 renal
HOP-62 NSCLC = tested on: HOP-62 NSCLC
NCI/ADR-RES ovarian = tested on: NCI/ADR-RES ovarian
HCT-116 colon = tested on: HCT-116 colon
HCT-15 colon = tested on: HCT-15 colon
OVCAR-5 ovarian = tested on: OVCAR-5 ovarian
OVCAR-8 ovarian = tested on: OVCAR-8 ovarian
CCRF-CEM leukemia = tested on: CCRF-CEM leukemia
UACC-62 melanoma = tested on: UACC-62 melanoma
SF-268 CNS = tested on: SF-268 CNS
IGROV1 ovarian = tested on: IGROV1 ovarian
EKVX NSCLC = tested on: EKVX NSCLC
SK-MEL-2 melanoma = tested on: SK-MEL-2 melanoma
MCF7 breast = tested on: MCF7 breast
MALME-3M melanoma = tested on: MALME-3M melanoma
SK-OV-3 ovarian = tested on: SK-OV-3 ovarian
NCI-H522 lung = tested on: NCI-H522 lung
SF-539 CNS = tested on: SF-539 CNS
RXF 393 renal = tested on: RXF 393 renal
SW-620 colon = tested on: SW-620 colon
OVCAR-3 ovarian = tested on: OVCAR-3 ovarian
SNB-19 CNS = tested on: SNB-19 CNS
K-562 leukemia = tested on: K-562 leukemia
NCI-H460 lung = tested on: NCI-H460 lung
SN12C renal = tested on: SN12C renal
HOP-92 NSCLC = tested on: HOP-92 NSCLC
RPMI-8226 leukemia = tested on: RPMI-8226 leukemia
786-0 renal = tested on: 786-0 renal
HS 578T breast = tested on: HS 578T breast
MDA-MB-435 = tested on: MDA-MB-435
MDA-MB-231 breast = tested on: MDA-MB-231 breast
DU-145 prostate = tested on: DU-145 prostate
SK-MEL-5 melanoma = tested on: SK-MEL-5 melanoma

Structure (SMILES): Cn1cc(-c2cc3nc(-c4cn(C)c5ncccc45)cc(N)n3n2)c2cc(Cl)ccc21
- GI50 (COLO 205 colon): 1770 nM
- TGI (COLO 205 colon): 3240 nM
- GI50 (CAKI-1 renal): 1850 nM
- TGI (CAKI-1 renal): 4380 nM
- GI50 (M14 melanoma): 1670 nM
- TGI (M14 melanoma): 3140 nM
- GI50 (T-47D breast): 1800 nM
- TGI (T-47D breast): 4040 nM
- GI50 (HCC-2998 colon): 1710 nM
- TGI (HCC-2998 colon): 3120 nM
- GI50 (A498 renal): 1900 nM
- TGI (A498 renal): 5370 nM
- GI50 (U251 CNS): 2180 nM
- TGI (U251 CNS): 5030 nM
- GI50 (PC-3 prostate): 2210 nM
- TGI (PC-3 prostate): 7600 nM
- GI50 (UACC-257 melanoma): 1720 nM
- TGI (UACC-257 melanoma): 3340 nM
- GI50 (MOLT-4 leukemia): 2020 nM
- TGI (MOLT-4 leukemia): 5110 nM
- GI50 (TK-10 renal): 1910 nM
- TGI (TK-10 renal): 6910 nM
- GI50 (SK-MEL-28 melanoma): 1650 nM
- TGI (SK-MEL-28 melanoma): 3040 nM
- GI50 (ACHN renal): 1860 nM
- TGI (ACHN renal): 3530 nM
- GI50 (LOX IMVI melanoma): 1770 nM
- TGI (LOX IMVI melanoma): 3160 nM
- GI50 (A549 NSCLC): 2870 nM
- TGI (A549 NSCLC): 12000 nM
- GI50 (SF-295 CNS): 1770 nM
- TGI (SF-295 CNS): 3410 nM
- GI50 (KM12 colon): 2140 nM
- TGI (KM12 colon): 4760 nM
- GI50 (NCI-H226 lung): 2020 nM
- TGI (NCI-H226 lung): 4640 nM
- GI50 (MDA-MB-468 breast): 1500 nM
- TGI (MDA-MB-468 breast): 2860 nM
- GI50 (NCI-H23 lung): 2320 nM
- TGI (NCI-H23 lung): 6470 nM
- GI50 (OVCAR-4 ovarian): 2030 nM
- TGI (OVCAR-4 ovarian): 4740 nM
- GI50 (HT29 colon): 1980 nM
- TGI (HT29 colon): 4100 nM
- GI50 (BT-549 breast): 1590 nM
- TGI (BT-549 breast): 3090 nM
- GI50 (UO-31 renal): 1620 nM
- TGI (UO-31 renal): 3310 nM
- GI50 (HOP-62 NSCLC): 1960 nM
- TGI (HOP-62 NSCLC): 4210 nM
- GI50 (NCI/ADR-RES ovarian): 2250 nM
- TGI (NCI/ADR-RES ovarian): 5300 nM
- GI50 (HCT-116 colon): 1620 nM
- TGI (HCT-116 colon): 2980 nM
- GI50 (HCT-15 colon): 1890 nM
- TGI (HCT-15 colon): 4360 nM
- GI50 (OVCAR-5 ovarian): 1850 nM
- TGI (OVCAR-5 ovarian): 4480 nM
- GI50 (OVCAR-8 ovarian): 2130 nM
- TGI (OVCAR-8 ovarian): 4820 nM
- GI50 (CCRF-CEM leukemia): 2580 nM
- TGI (CCRF-CEM leukemia): > 100000 nM
- GI50 (UACC-62 melanoma): 1600 nM
- TGI (UACC-62 melanoma): 3040 nM
- GI50 (SF-268 CNS): 2130 nM
- TGI (SF-268 CNS): 4830 nM
- GI50 (IGROV1 ovarian): 1870 nM
- TGI (IGROV1 ovarian): 3490 nM
- GI50 (EKVX NSCLC): 1680 nM
- TGI (EKVX NSCLC): 3510 nM
- GI50 (SK-MEL-2 melanoma): 1910 nM
- TGI (SK-MEL-2 melanoma): 3690 nM
- GI50 (MCF7 breast): 1830 nM
- TGI (MCF7 breast): 4310 nM
- GI50 (MALME-3M melanoma): 1710 nM
- TGI (MALME-3M melanoma): 3150 nM
- GI50 (SK-OV-3 ovarian): 2020 nM
- TGI (SK-OV-3 ovarian): 4080 nM
- GI50 (NCI-H522 lung): 1770 nM
- TGI (NCI-H522 lung): 3330 nM
- GI50 (SF-539 CNS): 1730 nM
- TGI (SF-539 CNS): 3150 nM
- GI50 (RXF 393 renal): 1530 nM
- TGI (RXF 393 renal): 2970 nM
- GI50 (SW-620 colon): 1800 nM
- TGI (SW-620 colon): 3530 nM
- GI50 (OVCAR-3 ovarian): 1910 nM
- TGI (OVCAR-3 ovarian): 3590 nM
- GI50 (SNB-19 CNS): 3230 nM
- TGI (SNB-19 CNS): 9760 nM
- GI50 (K-562 leukemia): 1750 nM
- TGI (K-562 leukemia): 4410 nM
- GI50 (NCI-H460 lung): 1880 nM
- TGI (NCI-H460 lung): 3670 nM
- GI50 (SN12C renal): 1630 nM
- TGI (SN12C renal): 3090 nM
- GI50 (HOP-92 NSCLC): 2160 nM
- TGI (HOP-92 NSCLC): 4140 nM
- GI50 (RPMI-8226 leukemia): 2400 nM
- TGI (RPMI-8226 leukemia): 6400 nM
- GI50 (786-0 renal): 1650 nM
- TGI (786-0 renal): 3030 nM
- GI50 (HS 578T breast): 2100 nM
- TGI (HS 578T breast): 5250 nM
- GI50 (MDA-MB-435): 1710 nM
- TGI (MDA-MB-435): 3290 nM
- GI50 (MDA-MB-231 breast): 1760 nM
- TGI (MDA-MB-231 breast): 3230 nM
- GI50 (DU-145 prostate): 2540 nM
- TGI (DU-145 prostate): 7060 nM
- GI50 (SK-MEL-5 melanoma): 1590 nM
- TGI (SK-MEL-5 melanoma): 2960 nM
